In PMC8667942 (Journal of Enzyme Inhibition and Medicinal Chemistry, 2021):
Where “and” joins values, the source holds several entries; their conditions need not be identical. Equal entries are not always repeated. Entries after “also recorded” stand apart in the source; their conditions may differ.

Tests used:
purified CYP3A4 = purified CYP3A4 (Homo sapiens, UniProt P08684); test: Spectral binding titration of purified CYP3A4; conditions: 1 µM purified CYP3A4, pH 7.4, no binding = no spectral change up to 200 μM; for Kd: read-out: CYP3A4 Kd (spectral dissociation constant)
purified CYP3A4, sequence (P08684 whole entry): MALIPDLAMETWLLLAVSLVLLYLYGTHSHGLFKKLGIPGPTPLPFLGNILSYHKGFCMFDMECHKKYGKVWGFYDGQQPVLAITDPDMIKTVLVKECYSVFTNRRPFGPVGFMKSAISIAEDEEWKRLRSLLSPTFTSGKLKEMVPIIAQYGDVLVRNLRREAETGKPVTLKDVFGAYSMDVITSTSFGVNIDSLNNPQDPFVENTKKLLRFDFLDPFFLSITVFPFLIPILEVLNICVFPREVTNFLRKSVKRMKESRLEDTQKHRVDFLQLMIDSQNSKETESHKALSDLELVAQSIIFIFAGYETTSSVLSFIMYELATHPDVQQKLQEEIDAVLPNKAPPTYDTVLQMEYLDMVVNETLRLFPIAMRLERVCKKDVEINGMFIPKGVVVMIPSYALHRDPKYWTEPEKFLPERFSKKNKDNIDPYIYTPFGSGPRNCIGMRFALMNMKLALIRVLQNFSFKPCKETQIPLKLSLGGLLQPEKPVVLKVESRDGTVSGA
Method: Purified CYP3A4 enzymes were diluted to 1 µM in 100 mM potassium phosphate buffer (pH 7.4) and then divided into two glass cuvettes. […] The binding titration was analysed using GraphPad Prism software (GraphPad, Inc., La Jolla, CA, USA).

[1] = molecular target: T1, recombinant microsomal CYP3A4 (Homo sapiens, UniProt P08684); test: In vitro CYP450 activity assay (Vivid CYP450 Blue screening kit, BOMCC); format: in vitro ADME; conditions: recombinant CYP3A4, 100 nM treatment for 10 min, mean ± SEM
T1 construct: purchased Invitrogen P2858; host or cells: BACULOSOMES (microsomes of baculovirus-infected insect cells: own knowledge of the product)
T1 sequence (P08684 whole entry): as above
Method: The activity of CYP3A4 was measured using the Vivid® CYP450 Blue screening kit (Cat No. P2858 for 3A4, Invitrogen). […] The system consisted of 100 μL of the final volume. The CYP450 substrate Vivid BOMCC and positive control inhibitor (ketoconazole), were dissolved in acetonitrile. […] The mixture containing test drugs, Vivid® CYP450 BACULOSOMES reagent, and Vivid® Regeneration system (Total 90 μL) was dispensed into a 96-well black plate and incubated at room temperature for 20 min. After adding 10 μL of Vivid® CYP450 reaction buffer (100 μM NADP, 10 μM Vivid® BOMCC), the mixture was incubated for 10 min at room temperature. […] The CYP450 3A4 inhibitory efficiency (%) of the test drug was calculated by comparing the reaction rates of the test compounds with the reaction rate of the positive control group (Ketoconazole) and the negative control group (0.1% Acetonitrile, 0.1% DMSO) using the measured fluorescence values.

human IP6K2 = molecular target: T2, human IP6K2 (Homo sapiens, UniProt Q9UHH9); test: IP6K2 inhibition assay (ADP Glo kinase assay); format: biochemical; conditions: purified human IP6K2, 10 μM IP6, 10 μM ATP, 8-dose, triplicate, mean ± SEM
T2 construct: made in house; host or cells: Sf9 insect cells (baculovirus)
T2 sequence (Q9UHH9 1-426): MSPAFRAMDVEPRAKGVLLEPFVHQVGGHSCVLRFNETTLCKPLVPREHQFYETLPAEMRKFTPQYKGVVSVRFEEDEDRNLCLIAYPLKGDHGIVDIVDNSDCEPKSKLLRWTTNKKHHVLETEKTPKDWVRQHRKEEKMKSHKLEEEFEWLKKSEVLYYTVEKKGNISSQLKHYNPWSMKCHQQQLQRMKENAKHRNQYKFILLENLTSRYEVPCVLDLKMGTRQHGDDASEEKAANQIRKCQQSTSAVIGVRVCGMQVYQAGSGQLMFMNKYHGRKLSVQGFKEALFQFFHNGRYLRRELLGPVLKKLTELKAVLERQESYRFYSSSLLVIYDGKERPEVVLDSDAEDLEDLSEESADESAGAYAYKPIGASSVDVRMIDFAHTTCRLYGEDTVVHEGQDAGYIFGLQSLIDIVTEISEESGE
Method: Full-length human IP6K2 cDNA was subcloned into pFASTBAC1 plasmid (Gibco) with an N-terminal FLAG epitope sequence, and baculovirus was generated according to the manufacturer’s instructions. Sf9 insect cells were infected with baculovirus and incubated for 72 h. The cells were resuspended in lysis buffer [20 mM Tris–HCl (pH 7.9), 500 mM NaCl, 4 mM MgCl2, 0.4 mM EDTA, 2 mM DTT, 20% glycerol, 1 mM PMSF, and protease inhibitor cocktail (Roche)] and then disrupted with a Dounce homogeniser (pestle A, 3 series of 10 strokes with 10 min interval).
IP6K2 activity was measured using ADP Glo assay kit (Promega). All kinase assays were performed in low volume 384-well white plates (784075, Greiner-bioone) with a final volume of 5 μL. The reaction buffer contained 2 ng Flag-hIP6K2, 10 μM IP6, and 10 μM ATP in kinase buffer (50 mM Tris, 10 mM MgCl2, 2.5 mM DTT, 0.02% Triton-X-100, pH 6.8)[26]. For dose-dependent inhibition assay, 8 serial 2-fold dilutions of test compounds were prepared in DMSO. The final DMSO concentration was 5% in each reaction. The test compounds (5X, 25% DMSO in 1X kinase buffer) were dispensed to each well, and 2.5 X IP6K2 in kinase buffer were added. After 15 min incubation at room temperature, 2.5 X concentrations of IP6 and ATP were added to the plate. The reaction plate was incubated in a 37 °C incubator for 30 min. Next, the reactions were quenched with 5 μL of ADP Glo reagent for 40 min to deplete the remaining ATP. To convert the remaining ADP to ATP, 10 μl of detection reagent were added and incubated for 30–60 min. The luminescence of the final reactants was measured using the Mithras LB940 plate reader from Berthold. Samples were run in triplicate and the activity (%) was calculated using the following equations; Activity (%) = 100 × (μexperimental–μnegative)/(μpositive–μnegative). Negative control was DSMO-treated reaction. IC50 value was estimated using a logistic regression model with R package.

[2] = test system: Akt phosphorylation at Thr308 in HCT116 cells; test: AKT activation in HCT116 cells (Western blot); format: cell-based, human; conditions: HCT116, 50 μM, 4 h, pAkt/Akt by Western blot
Method: Total proteins were quantified by bicinchoninic acid assay (23225, Thermo Fisher Scientific). Total 20 μg proteins were resolved in 8% SDS–PAGE, and then Akt phosphorylation was probed with primary antibodies against, phospho–Akt (Thr308) (4056) and Akt (9272) (Cell Signalling) and HRP-conjugated secondary antibody. The relative band intensities of Akt phosphorylation to total Akt were quantified with Image J software.

[3] = test system: IP7 synthesis in HCT116 cells; test: Quantification of intracellular inositol phosphates by HPLC in radiolabeled HCT116; format: cell-based, human; conditions: HCT116, 50 μM, 4 h
Method: For HPLC analysis, 2 × 10^5 cells/60 mm dish of HCT116 were treated with 75 μCi [^3H] myo-inositol (NET1177001MC, PerkinElmer). After 3 days, soluble inositol polyphosphates from HCT116 (human colorectal cancer cell line) were extracted and analysed as previously described. Intracellular inositol phosphates were extracted with acid extraction buffer (1 M HClO4, 3 mM EDTA, and 0.1 mg/ml1 IP6), and neutralised with neutralisation buffer (1 M K2CO3 and 3 mM EDTA). The lysates were centrifuged for 10 min, and the soluble fraction was resolved by HPLC as described earlier. The lipid pellet was lysed with 0.1% Triton X-100 in NaOH overnight. Each fraction was mixed with Ultima-Flo AP liquid scintillation cocktail (6013599, PerkinElmer), and radioactivity was counted in a scintillation counter. Quantity of inositol phosphates was presented as total counts/min (CPM) normalised by total lipid contents.

| Compound | melting point | Kd (purified CYP3A4) | Relative 3A4 inhibition (% of TNP) [1] | IC50 (human IP6K2) | increase in Akt phosphorylation at Thr308 compared to vehicle treatment [2] | IP4, IP5, and IP6 levels [3] | cellular IP7 synthesis (effect in words) [3] | decrease of cellular IP7 synthesis compared to DMSO [3] | CYP3A4 Kd (spectral dissociation constant) (purified CYP3A4) |
| --- | --- | --- | --- | --- | --- | --- | --- | --- | --- |
| Fc1ccc(CNc2nc(NCc3nc4ccccc4[nH]3)c3nc[nH]c3n2)cc1 [Compound 18, N^6-((1H-benzo[d]imidazol-2-yl)methyl)-N^2-(4-fluorobenzyl)-9H-purine-2,6-diamine] | 287 °C | 11.1 ± 1 µM | 120 ± 1 % of TNP | 13.2 ± 0.4 µM | – | – | – | – | – |
| CS(=O)(=O)c1ccc(CNc2nc(NCc3ccc(Cl)cc3)nc3[nH]cnc23)cc1 [Compound 8, N^2-(4-chlorobenzyl)-N^6-(4-(methylsulfonyl)benzyl)-9H-purine-2,6-diamine] | – | 14.4 ± 3.3 µM | – | – | – | – | – | – | – |
| FC(F)(F)c1cccc(CNc2nc(NCc3nc4ccccc4[nH]3)c3nc[nH]c3n2)c1 [Compound 17, N^6-((1H-benzo[d]imidazol-2-yl)methyl)-N^2-(3-(trifluoromethyl)benzyl)-9H-purine-2,6-diamine] | 289 °C | 7.9 ± 0.8 µM | 116 ± 3 % of TNP | 12.6 ± 0.4 µM | – | – | – | – | – |
| O=[N+]([O-])c1ccc(CNc2nc(NCc3cccnc3)c3nc[nH]c3n2)cc1 [Compound 13, N^2-(4-nitrobenzyl)-N^6-(pyridin-3-ylmethyl)-9H-purine-2,6-diamine] | 251 °C | 2 ± 0.5 µM | 126 ± 1 % of TNP | 3.3 ± 0.8 µM | – | – | – | – | – |
| FC(F)(F)c1cccc(CNc2nc(NCc3ncc[nH]3)c3nc[nH]c3n2)c1 [Compound 14, N^6-((1H-imidazol-2-yl)methyl)-N^2-(3-(trifluoromethyl)benzyl)-9H-purine-2,6-diamine] | – | 22.2 ± 4.5 µM | – | 34.7 ± 0.7 µM | – | – | – | – | – |
| Clc1ccc(CNc2nc(NCc3ncc[nH]3)c3nc[nH]c3n2)cc1 [Compound 16, N^6-((1H-imidazol-2-yl)methyl)-N^2-(4-chlorobenzyl)-9H-purine-2,6-diamine] | – | 40.5 ± 8 µM | – | 19.9 ± 0.1 µM | – | – | – | – | – |
| CS(=O)(=O)c1ccc(CNc2nc(NCc3ccc([N+](=O)[O-])cc3)nc3[nH]cnc23)cc1 [Compound 9, N^6-(4-(methylsulfonyl)benzyl)-N^2-(4-nitrobenzyl)-9H-purine-2,6-diamine] | – | – | – | 16 µM and 16.8 µM | more than 1.5 fold | without notable changes | reduced cellular IP7 synthesis | ~44% | did not show any binding spectral change; also recorded: without binding to CYP3A4; also recorded: No binding^d |
| FC(F)(F)c1cccc(CNc2nc(NCc3cccnc3)c3nc[nH]c3n2)c1 [Compound 10, N^6-(pyridin-3-ylmethyl)-N^2-(3-(trifluoromethyl)benzyl)-9H-purine-2,6-diamine] | – | 1.4 ± 0.5 µM | – | 5.3 ± 0.3 µM | – | – | – | – | – |
| Clc1ccc(CNc2nc(NCc3cccnc3)c3nc[nH]c3n2)cc1 [Compound 12, N^2-(4-chlorobenzyl)-N^6-(pyridin-3-ylmethyl)-9H-purine-2,6-diamine] | – | 1.8 ± 0.6 µM | – | – | – | – | – | – | – |
| Fc1ccc(CNc2nc(NCc3cccnc3)c3nc[nH]c3n2)cc1 [Compound 11, N^2-(4-fluorobenzyl)-N^6-(pyridin-3-ylmethyl)-9H-purine-2,6-diamine] | – | 3 ± 0.6 µM | – | 5.9 ± 0.2 µM | – | – | – | – | – |
| O=[N+]([O-])c1ccc(CNc2nc(NCc3nc4ccccc4[nH]3)c3nc[nH]c3n2)cc1 [Compound 20, N^6-((1H-benzo[d]imidazol-2-yl)methyl)-N^2-(4-nitrobenzyl)-9H-purine-2,6-diamine] | 153 °C | – | 65.7 ± 1.97 % of TNP | 21.8 ± 0.3 µM | more than 1.5 fold | without notable changes | reduced cellular IP7 synthesis | – | did not show any spectral dissociation constant value; also recorded: without binding to CYP3A4; also recorded: No binding^d |
| CS(=O)(=O)c1ccc(CNc2nc(NCc3cccc(C(F)(F)F)c3)nc3[nH]cnc23)cc1 [Compound 6, N^6-(4-(methylsulfonyl)benzyl)-N^2-(3-(trifluoromethyl)benzyl)-9H-purine-2,6-diamine] | – | 24.8 ± 4.3 µM | – | 4.6 ± 0.2 µM | – | – | – | – | – |
| CS(=O)(=O)c1ccc(CNc2nc(NCc3ccc(F)cc3)nc3[nH]cnc23)cc1 [Compound 7, N^2-(4-fluorobenzyl)-N^6-(4-(methylsulfonyl)benzyl)-9H-purine-2,6-diamine] | – | 28.8 ± 2.7 µM | – | 7.3 ± 0.5 µM | – | – | – | – | – |
| Clc1ccc(CNc2nc(NCc3nc4ccccc4[nH]3)c3nc[nH]c3n2)cc1 [Compound 19, N^6-((1H-benzo[d]imidazol-2-yl)methyl)-N^2-(4-chlorobenzyl)-9H-purine-2,6-diamine] | 160 °C | 16.9 ± 3.7 µM | 120 ± 0.66 % of TNP | 19.3 ± 0.27 µM | – | – | – | – | – |
| Fc1ccc(CNc2nc(NCc3ncc[nH]3)c3nc[nH]c3n2)cc1 [Compound 15, N^6-((1H-imidazol-2-yl)methyl)-N^2-(4-fluorobenzyl)-9H-purine-2,6-diamine] | – | – | – | 24.7 ± 0.2 µM | more than 1.5 fold | without notable changes | reduced cellular IP7 synthesis | – | did not display any binding spectral change; also recorded: without binding to CYP3A4; also recorded: No binding^d |
